Results as given in patent US10273211B2, “Metabolites of N-{4-([6,7-bis(methyloxy)quinolin-4-yl]oxy}phenyl)-N′-(4-fluorophenyl)cyclopropane-1,1-dicarboxamide” (Exelixis, Inc., priority 2013, dated 2019).

Legend:
[1] = molecular target: c-Met (Homo sapiens (Human), UniProt P08581); experiment: Kinase activity, EMD Millipore Kinase Profiler; format: biochemical; settings: for inhibition at 1 µM: read-out: c-Met percent inhibition; for IC50: read-out: c-Met Std (IC50)
[2] = molecular target: Flt-1 Alpha (Homo sapiens (Human), UniProt P17948); experiment: Kinase activity, EMD Millipore Kinase Profiler; settings: for inhibition at 1 µM: read-out: Flt-1 Alpha percent inhibition
[3] = molecular target: KDR (Homo sapiens (Human), UniProt P35968); experiment: Kinase activity, EMD Millipore Kinase Profiler; format: biochemical; settings: for inhibition at 1 µM: read-out: KDR percent inhibition; for IC50: read-out: KDR Std (IC50)
[4] = molecular target: Flt-4 (Homo sapiens (Human), UniProt P35916); experiment: Kinase activity, EMD Millipore Kinase Profiler; format: biochemical; settings: for inhibition at 1 µM: read-out: Flt-4 percent inhibition
[5] = molecular target: Flt-3 (Homo sapiens (Human), UniProt P36888); experiment: Kinase activity, EMD Millipore Kinase Profiler; format: biochemical; settings: for inhibition at 1 µM: read-out: Flt-3 percent inhibition; for IC50: read-out: Flt-3 Std (IC50)
[6] = molecular target: RET (Homo sapiens (Human), UniProt P07949); experiment: Kinase activity, EMD Millipore Kinase Profiler; format: biochemical; settings: read-out: RET percent inhibition
[7] = molecular target: Aurora B MP (Homo sapiens (Human), UniProt Q96GD4); experiment: Kinase activity, EMD Millipore Kinase Profiler; format: biochemical; settings: for inhibition at 1 µM: read-out: Aurora B MP percent inhibition; for IC50: read-out: Aurora B MP 8pt Std (IC50)
[8] = Metabolite profiling of human plasma after [14C] cabozantinib (mass balance study); format: in vivo; settings: single 175 mg oral dose of cabozantinib (L-malate salt) with [14C] cabozantinib, HPLC Method 1
Description: (§1) The objective of this study was to profile and identify metabolites of cabozantinib in human plasma, urine, and feces.
(§2) The plasma, urine, and fecal samples were collected from the 8 subjects for the metabolite profiling.
(§3) All samples were shipped to QPS LLC (Newark, Del.) and stored at −70° C. HPLC/tandem MS coupled with a radio flow-through detector (RFD) was used for metabolite profiling and identification for samples with sufficient levels of radioactivity.
(§4) HPLC fraction collection followed by counting with TopCount NXT™ was used for radioquantitation of plasma samples with sufficient levels of radioactivity. […] HPLC Method 1 was used for the analysis of pooled urine and fecal samples and individual plasma samples from different time points. […] HPLC Method 3 was used for pooled plasma samples.
For the investigation of co-eluting metabolites, nonradiolabeled plasma samples of six subjects were pooled, processed, and analyzed for pre-dose, 1-7, 8-96, and 120-336 hours post-dose. […] [^14C]
Radiolabeled and non-radiolabeled plasma samples were extracted employing the same method, using 1.0-2 mL plasma samples, depending on the volume available and radioactivity level of the samples. The supernatants were evaporated to dryness under a stream of nitrogen in an ambient water bath, and the residues were reconstituted in 0.35-0.5 mL of MeOH:ACN:water (10:20:70, v/v/v). The reconstituted samples were centrifuged at 15,000 rpm for 10 minutes. Aliquots of the supernatants were injected onto the HPLC system for analysis.
(§5) The system for metabolite profiling and identification (HPLC/MS/RFD) consisted of a HTC PAL autosampler, a Surveyor HPLC pump, a LTQ linear ion trap mass spectrometer, and a β-RAM Model 3 RFD. The data obtained by mass spectrometry and RFD were processed by Xcalibur and Laura Lite 3 software, respectively. The HPLC eluent was split between the RFD and mass spectrometer with a ratio of 3 to 1. The following are the summary of the conditions for HPLC, mass spectrometer, and RFD.
Mass spectra (MS, MS/MS, and MS/MS/MS) of cabozantinib and its metabolite standards, provided by the Exelixis, Inc., were acquired on an ion trap mass spectrometer. Major fragment patterns were proposed. Identification of these metabolites was confirmed by matching mass spectra (MS and MS/MS) and retention times with authentic reference standards. For other unknown metabolites, molecular ions were searched on LC/MS chromatograms operating in full scan positive as well as negative ionization modes at the same retention times as those found on LC-radio chromatogram. […]
For plasma samples, percent of total radioactivity in the sample for each peak at each time point was calculated and converted to ng/mL.

[9] = Metabolite profiling of human urine after [14C] cabozantinib (mass balance study); format: in vivo; settings: single 175 mg oral dose; for presence in pooled urine sample: human urine
Description: as §1, §2, §3, §4
The radioactivity in pooled urine and reconstituted solution was counted using LSC, and the reconstitution recovery calculated. […] Each pooled urine sample was lyophilized, the residue was reconstituted in water:ACN:FA (80:20:0.1, v/v/v), and the reconstituted sample was centrifuged at 15,000 rpm for 10 min before analysis.
as §5
(§6) Mass spectra (MS, MS/MS, and MS/MS/MS) of cabozantinib and its metabolite standards, provided by the Exelixis, Inc., were acquired on an ion trap mass spectrometer. Major fragment patterns were proposed. Identification of these metabolites was confirmed by matching mass spectra (MS and MS/MS) and retention times with authentic reference standards. For other unknown metabolites, molecular ions were searched on LC/MS chromatograms operating in full scan positive as well as negative ionization modes at the same retention times as those found on LC-radio chromatogram. Product ion mass spectra and high resolution mass spectra were then acquired for the corresponding molecular ions. Putative metabolite structures were proposed based on the analysis of their mass fragment patterns.
For the pooled urine samples, percent of total radioactivity in the pooled sample for each peak was calculated as the % of total non-parent in the pooled samples: % of total non-parent in the pooled samples=(total radioactivity of the peak/total radioactivity of the non-parent peaks)×100

[10] = Metabolite profiling of human feces after [14C] cabozantinib (mass balance study); format: in vivo; settings: single 175 mg oral dose
Description: as §1, §2, §3, §4
The supernatants were dried under a nitrogen stream, and the residues were reconstituted in water:ACN:FA (80:20:0.1, v/v/v). The reconstituted samples were centrifuged at 15,000 rpm for 10 min before analysis.
as §5, §6
For the pooled fecal samples, percent of total radioactivity in the pooled sample for each peak was calculated as the percent of total non-parent plus parent in the pooled samples: % of total non-parent plus parent in the pooled samples=(total radioactivity of the peak/total radioactivity of the parent and non-parent peaks)×100

Chain of Aurora B MP (Q96GD4 whole entry): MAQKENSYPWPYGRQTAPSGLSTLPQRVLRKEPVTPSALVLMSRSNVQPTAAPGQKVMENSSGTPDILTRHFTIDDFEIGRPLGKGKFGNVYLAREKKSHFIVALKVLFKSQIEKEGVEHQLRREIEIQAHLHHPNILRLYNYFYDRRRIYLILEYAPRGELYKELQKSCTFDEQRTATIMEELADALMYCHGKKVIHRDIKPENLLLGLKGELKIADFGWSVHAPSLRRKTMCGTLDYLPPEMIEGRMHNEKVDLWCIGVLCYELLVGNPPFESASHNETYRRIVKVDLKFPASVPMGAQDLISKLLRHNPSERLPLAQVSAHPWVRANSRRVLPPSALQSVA
Chain of Flt-3 (P36888 27-993): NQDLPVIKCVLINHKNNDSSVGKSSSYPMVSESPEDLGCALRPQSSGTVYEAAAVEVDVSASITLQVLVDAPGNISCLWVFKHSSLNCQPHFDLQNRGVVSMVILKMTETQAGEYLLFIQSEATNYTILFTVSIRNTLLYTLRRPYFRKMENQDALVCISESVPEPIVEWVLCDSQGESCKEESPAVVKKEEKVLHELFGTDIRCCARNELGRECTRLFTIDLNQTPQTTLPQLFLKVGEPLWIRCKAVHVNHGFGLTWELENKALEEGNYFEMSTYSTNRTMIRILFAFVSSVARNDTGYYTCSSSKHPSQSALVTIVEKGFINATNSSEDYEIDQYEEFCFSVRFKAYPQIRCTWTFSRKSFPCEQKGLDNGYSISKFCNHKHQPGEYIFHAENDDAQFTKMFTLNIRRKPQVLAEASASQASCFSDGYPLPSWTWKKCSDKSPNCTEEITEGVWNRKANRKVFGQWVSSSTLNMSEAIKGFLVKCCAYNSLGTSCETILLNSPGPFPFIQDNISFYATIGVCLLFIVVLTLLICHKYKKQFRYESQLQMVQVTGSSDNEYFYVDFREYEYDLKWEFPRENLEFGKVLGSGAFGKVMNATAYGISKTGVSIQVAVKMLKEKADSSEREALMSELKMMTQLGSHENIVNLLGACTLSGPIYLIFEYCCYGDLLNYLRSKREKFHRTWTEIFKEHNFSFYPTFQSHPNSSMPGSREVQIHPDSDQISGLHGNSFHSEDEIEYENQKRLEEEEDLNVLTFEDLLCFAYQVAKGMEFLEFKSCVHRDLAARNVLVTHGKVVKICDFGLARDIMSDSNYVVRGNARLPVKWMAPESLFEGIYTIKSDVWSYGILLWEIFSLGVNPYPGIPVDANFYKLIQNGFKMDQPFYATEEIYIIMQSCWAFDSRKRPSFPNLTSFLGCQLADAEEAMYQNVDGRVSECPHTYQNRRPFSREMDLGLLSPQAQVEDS
Chain of Flt-4 (P35916 25-1363): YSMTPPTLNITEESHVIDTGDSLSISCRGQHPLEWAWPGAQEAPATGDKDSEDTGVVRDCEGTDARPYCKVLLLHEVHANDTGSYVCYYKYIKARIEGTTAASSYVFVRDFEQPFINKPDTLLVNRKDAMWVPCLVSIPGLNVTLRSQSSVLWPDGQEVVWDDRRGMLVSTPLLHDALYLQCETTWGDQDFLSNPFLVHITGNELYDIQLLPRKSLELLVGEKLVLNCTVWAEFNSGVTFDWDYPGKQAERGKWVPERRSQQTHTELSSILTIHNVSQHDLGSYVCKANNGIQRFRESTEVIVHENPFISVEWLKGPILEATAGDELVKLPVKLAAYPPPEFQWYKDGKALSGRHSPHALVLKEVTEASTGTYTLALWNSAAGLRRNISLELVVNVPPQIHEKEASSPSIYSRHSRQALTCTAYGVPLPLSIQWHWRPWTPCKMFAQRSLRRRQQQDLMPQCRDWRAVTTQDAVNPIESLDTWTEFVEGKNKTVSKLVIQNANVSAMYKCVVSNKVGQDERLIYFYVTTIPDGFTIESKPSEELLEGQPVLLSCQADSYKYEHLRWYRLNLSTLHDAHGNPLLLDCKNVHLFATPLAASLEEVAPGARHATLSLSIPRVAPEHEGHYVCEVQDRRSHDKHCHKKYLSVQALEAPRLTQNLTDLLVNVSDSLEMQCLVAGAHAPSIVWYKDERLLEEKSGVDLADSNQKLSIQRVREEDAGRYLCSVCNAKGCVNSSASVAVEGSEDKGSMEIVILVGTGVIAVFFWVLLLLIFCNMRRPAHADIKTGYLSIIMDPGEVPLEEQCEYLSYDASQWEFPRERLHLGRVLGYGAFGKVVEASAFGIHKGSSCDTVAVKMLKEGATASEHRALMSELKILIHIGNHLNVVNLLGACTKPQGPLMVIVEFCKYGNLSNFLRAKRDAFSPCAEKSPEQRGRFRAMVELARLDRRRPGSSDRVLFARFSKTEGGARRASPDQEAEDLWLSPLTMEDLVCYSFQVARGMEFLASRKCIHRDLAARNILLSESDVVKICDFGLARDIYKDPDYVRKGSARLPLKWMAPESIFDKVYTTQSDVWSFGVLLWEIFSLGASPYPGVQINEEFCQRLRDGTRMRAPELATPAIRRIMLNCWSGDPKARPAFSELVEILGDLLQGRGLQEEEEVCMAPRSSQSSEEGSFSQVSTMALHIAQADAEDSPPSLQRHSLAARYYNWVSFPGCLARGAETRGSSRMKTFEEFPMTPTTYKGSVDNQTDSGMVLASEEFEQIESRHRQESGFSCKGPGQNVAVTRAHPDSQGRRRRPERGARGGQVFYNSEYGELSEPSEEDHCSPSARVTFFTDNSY
Chain of c-Met (P08581 25-1390): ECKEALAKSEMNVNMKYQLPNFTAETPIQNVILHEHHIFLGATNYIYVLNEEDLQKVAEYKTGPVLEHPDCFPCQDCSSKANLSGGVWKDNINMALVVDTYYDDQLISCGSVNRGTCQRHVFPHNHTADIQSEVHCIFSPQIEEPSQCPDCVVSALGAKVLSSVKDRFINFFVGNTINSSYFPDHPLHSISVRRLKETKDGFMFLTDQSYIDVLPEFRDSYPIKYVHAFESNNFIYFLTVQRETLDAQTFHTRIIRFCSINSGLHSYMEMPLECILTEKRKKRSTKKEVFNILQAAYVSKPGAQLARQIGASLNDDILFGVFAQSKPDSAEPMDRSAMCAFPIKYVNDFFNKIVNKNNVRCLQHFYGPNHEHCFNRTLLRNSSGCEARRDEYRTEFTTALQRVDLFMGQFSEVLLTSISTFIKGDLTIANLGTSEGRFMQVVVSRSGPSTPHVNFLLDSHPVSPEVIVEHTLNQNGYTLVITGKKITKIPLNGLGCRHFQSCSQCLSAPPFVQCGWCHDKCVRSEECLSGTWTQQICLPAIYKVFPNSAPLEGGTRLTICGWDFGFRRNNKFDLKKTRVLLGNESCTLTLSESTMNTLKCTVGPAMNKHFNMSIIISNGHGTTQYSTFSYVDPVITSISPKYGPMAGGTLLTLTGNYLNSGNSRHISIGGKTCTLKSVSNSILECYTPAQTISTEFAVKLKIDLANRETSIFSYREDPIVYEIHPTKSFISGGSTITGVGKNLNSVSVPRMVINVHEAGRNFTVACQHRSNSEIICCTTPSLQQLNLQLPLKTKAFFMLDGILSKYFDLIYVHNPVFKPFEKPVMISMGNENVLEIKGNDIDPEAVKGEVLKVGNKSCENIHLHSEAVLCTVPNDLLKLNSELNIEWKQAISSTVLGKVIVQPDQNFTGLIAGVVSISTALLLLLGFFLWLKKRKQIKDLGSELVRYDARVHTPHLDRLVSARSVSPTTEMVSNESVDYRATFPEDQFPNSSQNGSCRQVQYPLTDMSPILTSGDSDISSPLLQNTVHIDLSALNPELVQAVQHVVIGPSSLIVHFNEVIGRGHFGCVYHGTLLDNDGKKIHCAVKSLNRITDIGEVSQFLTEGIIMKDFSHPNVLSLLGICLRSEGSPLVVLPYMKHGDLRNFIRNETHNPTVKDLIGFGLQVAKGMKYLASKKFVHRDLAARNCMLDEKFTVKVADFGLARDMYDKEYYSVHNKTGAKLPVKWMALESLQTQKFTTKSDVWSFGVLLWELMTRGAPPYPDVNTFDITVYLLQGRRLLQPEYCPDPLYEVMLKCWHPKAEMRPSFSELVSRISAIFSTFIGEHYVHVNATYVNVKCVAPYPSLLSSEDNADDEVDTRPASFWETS
Chain of RET (P07949 29-1114): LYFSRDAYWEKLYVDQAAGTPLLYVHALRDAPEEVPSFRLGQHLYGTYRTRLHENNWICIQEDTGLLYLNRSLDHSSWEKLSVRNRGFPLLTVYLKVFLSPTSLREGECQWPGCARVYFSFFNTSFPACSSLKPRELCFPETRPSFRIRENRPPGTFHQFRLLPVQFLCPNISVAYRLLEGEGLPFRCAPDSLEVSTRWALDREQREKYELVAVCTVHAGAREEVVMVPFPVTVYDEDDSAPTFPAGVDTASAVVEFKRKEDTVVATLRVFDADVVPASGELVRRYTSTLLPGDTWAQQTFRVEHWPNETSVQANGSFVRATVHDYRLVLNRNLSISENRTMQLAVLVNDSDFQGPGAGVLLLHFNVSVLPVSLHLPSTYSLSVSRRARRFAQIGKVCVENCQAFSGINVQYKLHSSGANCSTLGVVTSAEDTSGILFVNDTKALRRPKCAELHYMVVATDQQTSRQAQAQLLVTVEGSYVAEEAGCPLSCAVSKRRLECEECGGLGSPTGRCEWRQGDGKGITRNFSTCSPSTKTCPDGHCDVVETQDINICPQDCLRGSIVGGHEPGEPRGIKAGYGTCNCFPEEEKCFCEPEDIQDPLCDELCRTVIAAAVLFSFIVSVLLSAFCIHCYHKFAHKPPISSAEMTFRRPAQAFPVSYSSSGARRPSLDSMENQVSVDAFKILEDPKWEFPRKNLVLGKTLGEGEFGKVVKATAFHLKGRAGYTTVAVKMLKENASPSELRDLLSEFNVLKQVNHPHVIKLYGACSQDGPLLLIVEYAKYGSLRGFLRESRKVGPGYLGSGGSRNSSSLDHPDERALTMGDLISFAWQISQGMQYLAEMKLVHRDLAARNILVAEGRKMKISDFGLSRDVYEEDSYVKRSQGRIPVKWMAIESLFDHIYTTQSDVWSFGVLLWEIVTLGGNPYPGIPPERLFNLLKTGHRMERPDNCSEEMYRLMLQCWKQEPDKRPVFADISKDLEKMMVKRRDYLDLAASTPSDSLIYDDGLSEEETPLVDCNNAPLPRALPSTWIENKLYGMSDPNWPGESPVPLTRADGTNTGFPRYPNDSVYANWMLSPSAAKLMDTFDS

## COc1cc2nccc(Oc3ccc(NC(=O)C4(C(=O)O)CC4)cc3)c2cc1OS(=O)(=O)O [Compound 2a]
[1]
  inhibition at 1 µM: ≥ 50%
[2]
  inhibition at 1 µM: ≤ 25%
[3]
  inhibition at 1 µM: ≤ 25%
[4]
  inhibition at 1 µM: ≥ 25%
[5]
  inhibition at 1 µM: ≤ 25%
[6]
  inhibition at 1 µM: ≤ 25%
[7]
  inhibition at 1 µM: ≤ 25%

## COc1cc2c(Oc3ccc(NC(=O)C4(C(=O)Nc5ccc(F)cc5)CC4)cc3)cc[n+]([O-])c2cc1OC [Compound 19]
[8]
  peak on plasma radio-chromatograms: major peaks
[9]; 0-72 hours post dose
  presence in pooled urine sample: observed

## COc1cc2nccc(Oc3ccc(NC(=O)C4(C(=O)Nc5ccc(F)c(O)c5)CC4)cc3)c2cc1OC [Compound 13]
[1]
  IC50: < 0.05 µM
[2]
  IC50: 0.5 to 5 µM
[3]
  IC50: < 0.05 µM
[5]
  IC50: < 0.05 µM
[7]
  IC50: 0.05 to 0.5 µM

## COc1cc2nccc(Oc3ccc(NC(=O)C4(C(=O)O)CC4)cc3)c2cc1OC [Compound 7, 1-[4-(6,7-Dimethoxy-quinolin-4-yloxy)-phenylcarbamoyl]-cyclopropane carboxylic acid]
[1]
  IC50: > 5 µM
[3]
  IC50: > 5 µM
[10]; 0-72 hours post dose
  presence in pooled fecal sample: observed
[10]; 144-192 hours post dose
  presence in pooled fecal sample: observed
[8]
  peak on plasma radio-chromatograms: one of the minor peaks
[9]; 0-72 hours post dose
  presence in pooled urine sample: observed
[9]; 144-192 hours post dose
  presence in pooled urine sample: observed
[5]
  IC50: 0.5 to 5 µM
[7]
  IC50: 0.5 to 5 µM

## COc1cc2nccc(Oc3ccc(NC(=O)C4(C(=O)Nc5ccc(F)cc5OS(=O)(=O)O)CC4)cc3)c2cc1OC [Compound 9]
[1]
  inhibition at 1 µM: ≥ 75%
[2]
  inhibition at 1 µM: ≥ 50%
[3]
  inhibition at 1 µM: ≤ 25%
[4]
  inhibition at 1 µM: ≥ 75%
[8]
  peak on plasma radio-chromatograms: major peaks
[5]
  inhibition at 1 µM: ≥ 50%
[6]
  inhibition at 1 µM: ≥ 75%
[7]
  inhibition at 1 µM: ≥ 75%

## COc1cc2nccc(Oc3ccc(NC(=O)C4(C(=O)Nc5ccc(F)cc5O)CC4)cc3)c2cc1OC [Compound 16]
[1]
  IC50: < 0.05 µM
[2]
  IC50: 0.5 to 5 µM
[3]
  IC50: < 0.05 µM
[10]; 0-72 hours post dose
  presence in pooled fecal sample: observed
[10]; 144-192 hours post dose
  presence in pooled fecal sample: observed
[5]
  IC50: < 0.05 µM
[7]
  IC50: 0.05 to 0.5 µM

## COc1cc2nccc(Oc3ccc(NC(=O)C4(C(=O)Nc5ccc(F)cc5)CC4)cc3)c2cc1OC [Cabozantinib, N-(4-{[6,7-bis(methyloxy)quinolin-4-yl]oxy}phenyl)-N′-(4-fluorophenyl)cyclopropane-1,1-dicarboxamide, reference compound]
[10]; 0-72 hours post dose
  presence in pooled fecal sample: observed
[4]; read-out: Flt-4 Std (IC50)
  IC50: < 0.05 µM
[8]
  peak on plasma radio-chromatograms: major peaks
[9]; human urine samples, all intervals
  presence in urine samples: not observed
